Test systems include BT-549 breast; CAKI-1 renal; CCRF-CEM leukemia; COLO 205 colon; DU-145 prostate; HOP-92 NSCLC; HT29 colon; IGROV1 ovarian; K-562 leukemia; LOX IMVI melanoma; M14 melanoma; MCF7 breast; MDA-MB-231 breast; MDA-N; OVCAR-4 ovarian; OVCAR-8 ovarian; SF-295 CNS; SF-539 CNS; SK-MEL-28 melanoma; UACC-257 melanoma.
Common to all, as to test: inhibition of tumour cell growth, NCI panel, 48 h

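Step 1: Grow cells in 96-well plates. Step 2: Expose to compound for 48 hours at 5 concentrations. Step 3: Interpolate endpoints linearly; if unreached, use highest concentration. TGI marks complete inhibition of growth.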 Where only a bound is given, the exact number is not on record here.

As to `O=C(/C=C1\Sc2ccccc2N=C1CC(=O)c1ccccc1)c1ccccc1`, the TGI is 37.9 µM in the assay on BT-549 breast; 34.1 µM in the assay with CAKI-1 renal; 50 µM with CCRF-CEM leukemia; 22.3 µM in the assay with COLO 205 colon; 89.1 µM in the assay with DU-145 prostate; 21.6 µM in the assay with HOP-92 NSCLC. Further, the TGI is 23.6 µM in the assay with HT29 colon; 37.4 µM in the assay with IGROV1 ovarian; 20 µM in the assay with K-562 leukemia; 21.2 µM in the assay on LOX IMVI melanoma; 36.4 µM in the assay on M14 melanoma; above 100 µM with MCF7 breast. The TGI in the assay on MDA-MB-231 breast is 41.8 µM; in the assay with MDA-N, above 100 µM; in the assay on OVCAR-4 ovarian it was 40.3 µM; in the assay on OVCAR-8 ovarian it was 37 µM; with SF-295 CNS it was 24.7 µM; in the assay on SF-539 CNS, 34.7 µM. The TGI in the assay with SK-MEL-28 melanoma is 57.2 µM; in the assay with UACC-257 melanoma, above 100 µM.

As for `C[C@H]1C2Cc3cc(O)ccc3[C@@]1(C)CCN2CCc1ccc(N)cc1`, the TGI in the assay with BT-549 breast was above 100 µM; in the assay with CAKI-1 renal it was above 100 µM; in the assay with CCRF-CEM leukemia, 69 µM; with COLO 205 colon, above 100 µM; in the assay with DU-145 prostate it was above 100 µM; in the assay on HOP-92 NSCLC it was 73.7 µM. Further, the TGI in the assay with HT29 colon was 31.9 µM; in the assay on IGROV1 ovarian, 66.3 µM; with K-562 leukemia, 52.6 µM; in the assay with LOX IMVI melanoma it was 28.2 µM; in the assay on M14 melanoma it was 32.4 µM; with MCF7 breast it was 28.4 µM. In addition, the TGI is above 100 µM in the assay on MDA-MB-231 breast; 38.4 µM in the assay with MDA-N; above 100 µM with OVCAR-4 ovarian; 45.8 µM with OVCAR-8 ovarian; 53.7 µM with SF-295 CNS; 31.3 µM in the assay on SF-539 CNS. Moreover, the TGI in the assay on SK-MEL-28 melanoma turned out to be 34.4 µM; with UACC-257 melanoma, 36.5 µM.

For the molecule `N=c1oc2ccccc2cc1-c1nc2ccccc2[nH]1`, the TGI in the assay on BT-549 breast was 87.4 µM; in the assay with CAKI-1 renal it was above 100 µM; in the assay on CCRF-CEM leukemia, above 100 µM; in the assay on COLO 205 colon it was above 100 µM; with DU-145 prostate, 35.7 µM; in the assay on HOP-92 NSCLC it was 35.5 µM. The TGI was above 100 µM with HT29 colon; above 100 µM in the assay on IGROV1 ovarian; 82.6 µM in the assay on K-562 leukemia; above 100 µM with LOX IMVI melanoma; above 100 µM with M14 melanoma; above 100 µM in the assay on MCF7 breast. In addition, the TGI in the assay on MDA-MB-231 breast was 57.6 µM; with MDA-N, 40.5 µM; in the assay with OVCAR-4 ovarian it was above 100 µM; in the assay with OVCAR-8 ovarian, above 100 µM; in the assay with SF-295 CNS it was above 100 µM; with SF-539 CNS, above 100 µM. Moreover, the TGI in the assay with SK-MEL-28 melanoma and with UACC-257 melanoma was above 100 µM each time.

Regarding `N#Cc1c2ccc([N+](=O)[O-])cc2c(=O)n2c1[nH]c1ccc(C(F)(F)F)cc12`, the TGI in the assay on BT-549 breast was above 100 µM; with CAKI-1 renal, above 100 µM; in the assay on CCRF-CEM leukemia it was above 100 µM; with COLO 205 colon it was above 46.3 µM; in the assay on DU-145 prostate, above 100 µM; in the assay with HOP-92 NSCLC it was 51.9 µM. Also, the TGI in the assay with HT29 colon is above 47.4 µM; with IGROV1 ovarian it was above 100 µM; in the assay on K-562 leukemia, 45.7 µM; with LOX IMVI melanoma, 45.6 µM; with M14 melanoma it was above 100 µM; in the assay on MCF7 breast, above 100 µM. The TGI with MDA-MB-231 breast was above 77.8 µM; in the assay with MDA-N it was above 100 µM; in the assay with OVCAR-4 ovarian it was above 100 µM; with OVCAR-8 ovarian it was above 100 µM; in the assay on SF-295 CNS it was 66.1 µM; in the assay with SF-539 CNS it was above 100 µM. Further, the TGI is above 85.4 µM with SK-MEL-28 melanoma and above 100 µM in the assay on UACC-257 melanoma.

Turning to `Cc1ccc2nc3n[nH]c(N)c3nc2c1`, the TGI with BT-549 breast, with CAKI-1 renal, in the assay with CCRF-CEM leukemia, with COLO 205 colon, in the assay on DU-145 prostate and in the assay on HOP-92 NSCLC was above 100 µM throughout. Further, the TGI with HT29 colon, in the assay on IGROV1 ovarian, with LOX IMVI melanoma, in the assay with M14 melanoma, with MCF7 breast and in the assay with MDA-MB-231 breast was above 100 µM throughout. The TGI with MDA-N, in the assay on OVCAR-4 ovarian, with OVCAR-8 ovarian, in the assay with SF-295 CNS, with SF-539 CNS and in the assay on SK-MEL-28 melanoma was above 100 µM in each case. The TGI with UACC-257 melanoma was above 100 µM.

Regarding `Cc1ccc(-c2c(-c3ccccc3)[nH]c(C)c2C(=O)ONC(=O)c2ccccc2)cc1`, the TGI in the assay on BT-549 breast is 14.1 µM; with CAKI-1 renal, 5.48 µM; with CCRF-CEM leukemia it was above 27.1 µM; in the assay with COLO 205 colon, 25.7 µM; with DU-145 prostate, 3.82 µM; with HOP-92 NSCLC, 4.09 µM. Moreover, the TGI in the assay with HT29 colon is above 42.4 µM; in the assay with IGROV1 ovarian, 3.15 µM; with K-562 leukemia, 6.72 µM; in the assay on LOX IMVI melanoma, 4.45 µM; in the assay on M14 melanoma, 18 µM; in the assay on MCF7 breast, 17.3 µM. Besides, the TGI in the assay with MDA-MB-231 breast amounted to 12.8 µM; in the assay with MDA-N it was 6.12 µM; in the assay with OVCAR-4 ovarian, 9.48 µM; in the assay with OVCAR-8 ovarian, 18.5 µM; in the assay with SF-295 CNS it was 4.17 µM; in the assay on SF-539 CNS, 8.06 µM. For the same molecule, the values for the TGI in the assay with SK-MEL-28 melanoma and in the assay on UACC-257 melanoma were 27.1 µM and 27.3 µM, respectively.

As for `CCC(C)C(N)C(=O)N/N=C\c1c2c(nc3ccccc13)-c1cc3c(c(=O)n1C2)COC(=O)[C@]3(O)CC` (stereo partly drawn), the TGI was above 30.2 µM in the assay with BT-549 breast; 65.5 µM with CAKI-1 renal; above 51.6 µM in the assay on COLO 205 colon; 2.04 µM in the assay with DU-145 prostate; 1.8 µM in the assay with HOP-92 NSCLC; above 100 µM in the assay on HT29 colon. Moreover, the TGI in the assay on IGROV1 ovarian was above 47 µM; with K-562 leukemia, above 45.1 µM; in the assay with LOX IMVI melanoma, 1.08 µM; in the assay with M14 melanoma, 1.6 µM; in the assay on MCF7 breast it was 1.61 µM; in the assay on MDA-MB-231 breast, above 82.2 µM. In addition, the TGI with MDA-N was above 100 µM; in the assay on OVCAR-4 ovarian, 52.6 µM; with OVCAR-8 ovarian it was above 20 µM; with SF-295 CNS, 1.37 µM; with SF-539 CNS, 0.0223 µM; in the assay with SK-MEL-28 melanoma, above 100 µM. The molecule further yielded a TGI in the assay on UACC-257 melanoma of 11.9 µM.
